Measured values published in patent publication US4935238A, “Antibiotic A 40926 complex and its pure factors PA, PB, A, B and B0” (Gruppo Lepetit, S.p.A., priority 1984, dated 1990).
≈ marks a conversion by molar mass, not a printed value.

Legend:
Test in all cases: Bactericidal effect on N. gonorrhoeae strains
Format in all cases: cell-based
N. gonorrhoeae L 1004 = settings: Neisseria gonorrhoeae, L1004, clinical isolate
N. gonorrhoeae L 1605 = settings: Neisseria gonorrhoeae, L1605, clinical isolate, penicillin-resistant
N. gonorrhoeae L 1001 = settings: Neisseria gonorrhoeae, L1001, clinical isolate
N. gonorrhoeae L 1596 = settings: Neisseria gonorrhoeae, L1596, clinical isolate, spectinomycin-resistant
[1] = tested on: N. gonorrhoeae L 1007 (CTC 6820); settings: Neisseria gonorrhoeae
N. gonorrhoeae L 1601 = settings: Neisseria gonorrhoeae, L1601, clinical isolate, penicillin-resistant
[2] = 24 h, 99.9% of initial inoculum killed

CN[C@@H]1[C@H](O)[C@H](NC)[C@H]2O[C@@]3(O)C(=O)C[C@@H](C)O[C@H]3O[C@@H]2[C@H]1O [Spectinomycin]
MBC (N. gonorrhoeae L 1004; [2]): 32 µg/mL (≈ 96.3 µM)
MIC (N. gonorrhoeae L 1004; 48 h): 16 µg/mL (≈ 48.1 µM)
MBC (N. gonorrhoeae L 1605; [2]): 32 µg/mL (≈ 96.3 µM)
MIC (N. gonorrhoeae L 1605; 48 h): 32 µg/mL (≈ 96.3 µM)
MBC (N. gonorrhoeae L 1001; [2]): 32 µg/mL (≈ 96.3 µM)
MIC (N. gonorrhoeae L 1001; 48 h): 16 µg/mL (≈ 48.1 µM)
MBC (N. gonorrhoeae L 1596; [2]): > 128 µg/mL
MIC (N. gonorrhoeae L 1596; 48 h): > 128 µg/mL
MIC ([1]; 48 h): 16 µg/mL (≈ 48.1 µM)
MBC [1, 2]: 16 µg/mL (≈ 48.1 µM)
MBC (N. gonorrhoeae L 1601; [2]): 16 µg/mL (≈ 48.1 µM)
MIC (N. gonorrhoeae L 1601; 48 h): 16 µg/mL (≈ 48.1 µM)
